# Experimental data published in US20210139610A1, “COMPOSITIONS AND METHODS FOR MEDIATING EPS” (priority 2018, published 2021).
# Entries after “also recorded” stand apart in the source; their conditions may differ.
# B1: RNase A: ribonuclease (protein, UniProt P61823 27-150, looked up)
# Ribonuclease pancreatic: KETAAAKFERQHMDSSTSAASSSNYCNQMMKSRNLTKDRCKPVNTFVHESLADVQAVCSQKNVACKNGQTNCYQSYSTMSITDCRETGSSKYPNCAYKTTQANKHIIVACEGNPYVPVHFDASV
# Columns and labels:
# [1] = test system: Z-DNA and B-DNA in the NTHI biofilm extracellular matrix; test: Immunofluorescence CLSM for Z-DNA / B-DNA in NTHI biofilms; format: cell-based, Non-typeable Haemophilus influenzae; conditions: HMGB1 treatment at 24 h, read at 40 h
# Protocol: FIG. 31: DNase degrades B-DNA, but not Z-DNA, within the biofilm extracellular matrix. DNase (Pulmozyme; 5 units) was added at 24 h after biofilm seeding to in vitro pre-formed NTHI biofilms.
# FIG. 37: HMGB1 destabilizes Z-DNA structures in the biofilm extracellular matrix. Non-typeable Haemophilus influenzae biofilms were grown in supplemented BHI media in 8 well chambered coverglass slides at 37° C. and 5% CO2. After 24 h, biofilms were treated as indicated above. After 40 h, biofilms were washed, probed with primary antibodies directed against Z-DNA (light gray dots), a fluorescent secondary antibody, stained with DAPI (gray regions), and visualized via fluorescence microscopy.
# FIGS. 50A-50B: Equilibrium shift of B-DNA to Z-DNA conversion alters biofilm formation. NTHI biofilms formed for 24 h were incubated with cerium chloride (CeCl3) or chloroquine for an additional 16 h and were probed with naive or anti-Z-DNA (white) by immunofluorescence CLSM.
# FIGS. 51A-51B: Equilibrium shift of B-DNA to Z-DNA conversion alters biofilm formation. NTHI biofilms formed for 24 h were incubated with cerium chloride (CeCl3) (FIG. 51A) or chloroquine (FIG. 51B) for an additional 16 h. Z-DNA was measured by IF and CLSM using anti-Z-DNA and cells were stained with the membrane stain FM4-64. Bars represent the SEM. Statistical significance compared to control was assessed by paired t-tests, *P<0.05, **P<0.01.
# poly(dG-dC) substrate = poly(dG-dC) substrate nuclease degradation (gel electrophoresis); format: biochemical; conditions: in presence of protective concentrations of spermidine/polyamines
# Protocol: FIG. 32: Z-DNA formation protects DNA from nuclease degradation. A poly(dG-dC) substrate was incubated with salt activated nuclease (SAN) or DNase I in increasing concentrations of NaCl, spermine, or spermidine as indicated above. Degradation products were visualized by gel electrophoresis. High salt and polyamines protect DNA from degradation through conversion to the Z-DNA form.
# FIGS. 34A-34B: DNABII proteins protect DNA by shifting to Z-DNA form. (FIG. 34A) A poly(dG-dC) substrate was incubated with DNase I in increasing concentrations of NTHi HU as indicated above. Degradation products were visualized by gel electrophoresis. […] (FIG. 34B) Top: Circular dichroism spectrum of a B-DNA substrate being converted to Z-DNA by increasing concentrations of a Z-DNA catalyst (adapted from Rahmouni (1992) Mol Microbiol. 6(5):569-72). Note inversion of negative peak around 250 nm and positive peak around 280 nm. Bottom: Poly(dGdC) DNA (5 μg) was incubated with HU (15 μM) for 2 h and CD spectra collected.
# FIG. 41: HMGB1 reverts polyamine-induced Z-DNA to a nuclease sensitive B-DNA state. A poly(dG-dC) substrate was incubated with spermidine and HMGB1. Degradation products were visualized by gel electrophoresis.
# DNABII proteins = DNABII proteins in NTHI biofilm and culture media (immunofluorescence, Western blot); format: cell-based, Non-typeable Haemophilus influenzae; conditions: HMGB1 treatment at 24 h, read at 40 h
# Protocol: FIGS. 38A-38C: HMGB1 displaces DNABII proteins thereby disrupting NTHI biofilms. Non-typeable Haemophilus influenzae biofilms were grown in supplemented BHI media in 8 well chambered coverglass slides at 37° C. and 5% CO2. After 24 h, biofilms were treated as indicated. (FIG. 38A) After 40 h, biofilms were washed, probed with primary antibodies directed against DNABII proteins (light gray dots), a fluorescent secondary antibody, stained with DAPI (gray regions), and visualized via fluorescence microscopy. (FIG. 38B) Media from biofilm cultures was collected and analyzed via Western blot with a primary antibody that recognizes DNABII proteins. […] (FIG. 38C) COMSTAT quantification NTHI biofilms stained with LIVE/DEAD® and visualized with confocal microscopy after treatment with 5 mg/mL HMGB1.
# [2] = test system: NTHI biofilms in the middle ear; test: Chinchilla model of otitis media due to NTHI, middle ear biofilm scoring; format: in vivo; conditions: 5 μg to middle ears at 4 and 5 days post infection, scored 24 h later
# Protocol: FIGS. 39A-39B: HMGB1 promotes biofilm resolution in an experimental model (chinchilla host) of OM. Diluent or 5 μg rHMGB1 or mHMGB1 were delivered directly to middle ears of chinchillas at 4 and 5 days post infection with NTHI. Animals were sacrificed 24 h later, and their middle ears were imaged (FIG. 39A) and blindly scored (FIG. 39B) based on the criteria described in the bottom of (FIG. 39A). Bars represent SEM. ***P<0.001.
# B. cenocepacia biofilms = test: Burkholderia cenocepacia in vitro biofilm disruption (COMSTAT); format: cell-based; conditions: 5 mg/mL HMGB1 at 24 h, total 40 h
# Protocol: (§1) (FIG. 40A) B. cenocepacia biofilms were grown in LB media in 8 well chambered coverglass slides at 37° C. and 5% CO2. After 24 h, biofilms were treated 5 mg/mL HMGB1. After a total of 40 h, biofilms were stained with LIVE/DEAD®, visualized via CLSM and analyzed by COMSTAT. Bars represent the SEM. (FIG. 40B) C57BL/6 mice were infected with 10^7 CFU i.t., and simultaneously received 5 mg rHMGB1 or mHMGB1, a C45 S non-inflammatory variant. Aggregates of B. cenocepacia were visible by fluorescence microscopy in sections probed with an α-B. cenocepacia antibody (gray). After 18 h, (FIG. 40C) CFUs were quantified in BAL. Bars represent SD. *P<0.05, ***P<0.001.
# B. cenocepacia = test: Mouse lung infection with B. cenocepacia (aggregates, CFU in BAL); format: in vivo, C57BL/6 mice; conditions: 10^7 CFU i.t. with simultaneous 5 mg rHMGB1 or mHMGB1, 18 h
# Protocol: as §1
# preformed NTHI biofilms = test: Disruption of pre-formed NTHI biofilms (treatment after initial growth; LIVE/DEAD, CLSM, COMSTAT); format: cell-based, Non-typeable Haemophilus influenzae; conditions: 5 mg/mL HMGB1, treated at 24 h
# [3] = test system: Non-typeable Haemophilus influenzae biofilms; test: NTHI in vitro biofilm formation, additive present from seeding (LIVE/DEAD, CLSM, COMSTAT); format: cell-based; conditions: for NTHI biofilm formation (average thickness, biomass): DCHA 50 μM
# Protocol: FIG. 14: Non-typeable Haemophilus influenzae biofilms were grown for 40 h in supplemented BHI medium containing additives as indicated below each bar in 8 well chambered coverglass slides at 37° C. and 5% CO2. Biofilms were washed, stained with LIVE/DEAD®, fixed, and imaged by CLSM. Biofilm parameters were quantified using COMSTAT software.
# Dicyclohexylamine inhibits spermidine synthase via a competitive inhibition mechanism, i.e. through binding to the same site on the protein as the putrescine substrate. Applicants therefore hypothesized that dicyclohexylamine would inhibit NTHi biofilm development. […]
# [4] = test system: Non-typeable Haemophilus influenzae; test: NTHI growth (absorbance at 490 nm, colony-forming units); format: cell-based; conditions: 16 h, supplemented BHI, up to 10 mM
# Protocol: FIG. 13: Non-typeable Haemophilus influenzae were grown for 16 h in supplemented BHI media containing additives as indicated above in 96 well plates at 37° C. and 5% CO2. Growth was quantified by spectrophotometric absorbance at 490 nm (left) and by enumeration of colony-forming units (right).
# (§2) Dicyclohexylamine inhibits spermidine synthase via a competitive inhibition mechanism, i.e. through binding to the same site on the protein as the putrescine substrate. Applicants therefore hypothesized that dicyclohexylamine would inhibit NTHi biofilm development.
# [5] = test system: spermidine in the NTHI biofilm matrix; test: Immunofluorescence for spermidine in NTHI biofilm matrix; format: cell-based, Non-typeable Haemophilus influenzae; conditions: grown 40 h in presence of DCHA
# Protocol: FIG. 15: Non-typeable Haemophilus influenzae biofilms were grown for 40 h in supplemented BHI media containing additives as indicated above in 8 well chambered coverglass slides at 37° C. and 5% CO2. Biofilms were washed, probed with primary antibodies directed towards spermidine, a fluorescent secondary antibody (dark gray dots), and stained with DAPI (gray regions).
# as §2
# [6] = test system: spermidine levels in UPEC biofilms; format: cell-based
# [7] = test system: eDNA scaffold structure of NTHI biofilms; test: eDNA scaffold structure in early (3 h) NTHI biofilms, dsDNA immunofluorescence; format: cell-based, Non-typeable Haemophilus influenzae; conditions: DCHA 50 μM
# Protocol: FIGS. 3A-3C: Polyamine synthesis inhibitor reduces biofilm formation. (FIG. 3A) COMSTAT quantification of LIVE/DEAD® stained NTHI biofilms grown in the presence of dicyclohexylamine (DCHA, 50 μM), a spermidine (Spd) synthase inhibitor, Spd (1 mM), or both. Bars represent the SEM. Statistical significance compared to control was assessed by unpaired t-tests, *P<0.05. […] (FIG. 3B) Immunofluorescence microscopy images of eDNA scaffold structure in NTHI in vitro biofilms grown for 3 h in the presence of DCHA (50 μM). […] (FIG. 3C) Immunofluorescence CLSM images of NTHI in vitro biofilms grown for 40 h in the presence of DCHA. Probed for Spd (white dots in FIG. 3C lower panel) and counterstained with DAPI (gray regions).
# FIG. 16: Surface attached non-typeable Haemophilus influenzae were grown for 3 h in supplemented BHI media containing additives as indicated above in Fluorodish coverglass dishes at 37° C. and 5% CO2. Biofilms were washed, probed with primary antibodies directed towards double stranded DNA and a fluorescent secondary antibody (white).
# as §2
# [8] = test system: Non-typeable Haemophilus influenzae biofilms; test: NTHI in vitro biofilm formation, additive present from seeding (LIVE/DEAD, CLSM, COMSTAT); format: cell-based; conditions: RNase A present from seeding, 16 h
# [9] = 50 μM dicyclohexylamine, 40 h, COMSTAT
# [10] = listed as Dicyclohexylamine (DCHA)
# [11] = listed as dicyclohexylamine (DCHA)
# [12] = listed as spermidine synthase inhibitor
molecule,measurement,setting,value
"HMGB1: high mobility group box 1 protein, eukaryotic chromatin protein of 215 amino acids",Z-DNA content of NTHI biofilm matrix,[1],diminished Z-DNA content; also recorded: reduced Z-DNA structures in the biofilm matrix
same,nuclease sensitivity of poly(dG-dC) substrate,poly(dG-dC) substrate,restored nuclease sensitivity to spermidine-induced Z-DNA substrates
same,DNABII proteins in / released from the biofilm matrix,DNABII proteins,DNABII proteins were released from the biofilm; also recorded: displaced DNABII proteins from the biofilm matrix
same,resolution of middle ear NTHI biofilms,[2],efficient resolution of adherent biofilms; also recorded: promoted clearance of pre-existing NTHI biofilms in situ
same,B. cenocepacia biofilm disruption in vitro,B. cenocepacia biofilms,effective at disrupting biofilms formed in vitro by Burkholderia cenocepacia; also recorded: disrupts Burkholderia cenocepacia biofilms
same,B. cenocepacia aggregate biofilm in lungs,B. cenocepacia,prevented B. cenocepacia aggregate biofilm formation in the lungs of mice; also recorded: significantly disrupts B. cenocepacia biofilms in situ
same,NTHI biofilm disruption,preformed NTHI biofilms,significant biofilm disruption; also recorded: disrupts biofilms by displacing DNABII proteins
C1CCC(NC2CCCCC2)CC1 [dicyclohexylamine],biofilm roughness,"[3]; 50 μM dicyclohexylamine, 40 h",increasing biofilm roughness
same,reduction of biofilm biomass,[3]; [9],approximately 40%
same,reduction of biofilm thickness,[3]; [9],approximately 40%
same,"NTHI biofilm formation (average thickness, biomass)",[3],significantly inhibited NTHi biofilm formation
same,"NTHI biofilm formation (average thickness, biomass)",[3]; listed as DCHA,"inhibited biofilm biogenesis in vitro, decreasing average thickness and biomass; also recorded: Average thickness of biofilms was decreased"
same,"NTHI biofilm formation (average thickness, biomass)",[3]; listed as Dicyclohexylamine,inhibited biofilm biogenesis
same,"NTHI biofilm formation (average thickness, biomass)",[3]; [10],significantly decreased average thickness compared to sBHI control
same,"NTHI biofilm formation (average thickness, biomass)",[3]; [11],a significant decrease in biofilm average thickness
same,NTHi growth,[4],did not affect NTHi growth up to 10 mM
same,NTHi growth,[4]; listed as DCHA,did not affect NTHI growth
same,NTHi growth,[4]; [12],did not affect normal growth
same,spermidine / polyamine presence in NTHI biofilm matrix,[5],statistically significant corresponding decrease in spermidine present in the biofilm matrix
same,spermidine / polyamine presence in NTHI biofilm matrix,[5]; listed as DCHA,reduced extracellular polyamine incorporation into the biofilm EPS; also recorded: inhibits polyamine incorporation into the biofilm EPS
same,spermidine / polyamine presence in NTHI biofilm matrix,[5]; [10],reduces spermidine levels in NTHI and UPEC biofilms
same,spermidine / polyamine presence in NTHI biofilm matrix,[5]; [11],an overall decrease in spermidine levels as measured by IF
same,spermidine / polyamine presence in NTHI biofilm matrix,[5]; [12],reduced spermidine presence in the biofilm matrix
same,spermidine levels in UPEC biofilms,[6],reduces spermidine levels in NTHI and UPEC biofilms
same,eDNA scaffold structure amount and complexity,[7]; listed as DCHA,inhibited production of the eDNA scaffold; also recorded: eDNA scaffold structure production is greatly reduced
same,eDNA scaffold structure amount and complexity,[7]; listed as Dicyclohexylamine,reduced the amount and the complexity of eDNA scaffold structures
same,eDNA scaffold structure amount and complexity,[7]; [12],reduced both the presence and complexity of the extracellular DNA structure
B1,NTHI biofilm formation,[8],stimulated biofilm formation in a dose-dependent manner
